The test system of one series is Leidshmania donovanii. Description: Prevention of methotrexate resistance development in Leishmania by gradual increase in MTX concentration. The series is classed as cell-based. On the procedure:
Prevention of resistance development in Zooflagellates (Leishmania) by the simultaneous administration of the anti-recombinogenic 5-substituted nucleoside (E)-5-(2-bromovinyl)2′-deoxyuridines (BVDU) with methotrexate.
Methotrexate (MTX) resistant cells of Leidshmania donovanii were produced by gradual increase in the MTX concentrations of 5 to 10, of 10 to 50 and of 50 to 100 μm MTX. 5×10^6 cells/ml respectively were seeded in the growth medium. The cells were diluted again to 5×10^6 cells/ml for each new batch. The cells were then constantly subjected to the next higher MTX concentration when the cell division rate of the MTX-subjected cells had stabilised to the control level. […] The result of this test can be seen in a simplified version in FIGS. 9 and 10.

Series [1] relates to E. coli J53 (RP4) strains. In words: Determination of minimal inhibitory concentrations (MIC) of Kanamycin or Amikacin on starter, adapted and BVDU-pretreated strains. Type of series: cell-based, Escherichia coli. The following applies: for MIC: Escherichia coli. An excerpt:
In order to determine the minimal inhibitory concentrations (MIC), precultures were used initially for which antibiotic-free culture medium had been inoculated directly from frozen glycerine cultures. […] However even higher antibiotic concentrations still led to the growth of the inoculum. However, the growth inhibition prevented a larger cell density in the bacteria culture being reached.
In order to test the stability of the specific resistance features of the E. coli strains, the MIC determination was repeated. The already tested precultures were again absorbed for this purpose in antibiotic-free culture medium and tested for their Kanamycin resistance. The resistance spectra of the starter strain and of the strain adapted to 64 μg/ml remained unchanged. […] The results are illustrated in FIG. 4.
The results can be deduced from FIG. 6.
(§1) In order to determine the minimal inhibitory concentrations (MIC) of Kanamycin or Amikacin relative to aminoglycoside/BVDU-pretreated E coli J53 (RP4) strains, standard precultures were used which contained no additives in the culture medium (recovery phase). In addition, it was tested in comparative experiments to what extent the addition of BVDU to the antibiotic-free precultures changes the resistant spectrum of the strains.

Series [2] has as its system Escherichia coli J53 (RP4). Description: Growth tests: adaptation (resistance development) to aminoglycoside antibiotic with or without BVDU. The series is classed as cell-based. An excerpt: Escherichia coli J53 was used as Gram-negative model organism in order to test the effectiveness of BVDU. This organism carries the naturally occurring plasmid RP4, on which resistances to Ampicillin, Tetracycline and Kanamycin are encoded.
The results are illustrated in FIGS. 1 and 2.

Series [3] deals with aminoglycoside/BVDU-pretreated E coli J53 (RP4) strains. Description: BVDU conditioned growth inhibition after aminoglycoside/BVDU pretreatment. Type of series: cell-based, Escherichia coli. Here is the method:
as §1
In comparison therewith, the growth without antibiotic in the additive-free preculture corresponded to that of the untreated E. coli strain. The results are illustrated in FIGS. 7 and 8.

Where [4] appears, read: 1 μg/ml BVDU added simultaneously with MTX.

Where two headings read alike, the source gives them in different places.

`CN(Cc1cnc2nc(N)nc(N)c2n1)c1ccc(C(=O)N[C@@H](CCC(=O)O)C(=O)O)cc1` [MTX, Methotrexate]: the “passages until cell division rate stabilised to the control level” value with Leidshmania donovanii (MTX alone, steps 5 to 10, 10 to 50, 50 to 100 μm MTX) is “approximately three to four passages”.
For the molecule `NCC[C@H](O)C(=O)N[C@@H]1C[C@H](N)[C@@H](O[C@H]2O[C@H](CN)[C@@H](O)[C@H](O)[C@H]2O)[C@H](O)[C@H]1O[C@H]1O[C@H](CO)[C@@H](O)[C@H](N)[C@H]1O` [Amikacin], in series [1] (strain which had become resistant to 0.25 μg/ml Amikacin, read-out: MIC of Amikacin), the MIC was 2 µg/mL. The “Amikacin concentration from which growth inhibition was shown” value in series [1] (strain grown in the presence of 2 μg/ml BVDU (no resistance to 0.25 μg/ml Amikacin)) came out at 0.125 µg/mL. The “increase of Amikacin MIC relative to the starter strain” value in series [1] (strain which had become resistant to 0.25 μg/ml Amikacin) is reported as “eight times increased”. The “adaptation, i.e. resistance development, to the antibiotic” value in series [2] (Amikacin 0.25 μg/ml alone, E coli J53 (RP4)) is “slow adaptation, i.e. resistance development”.
With `NC[C@H]1O[C@H](O[C@H]2[C@H](O)[C@@H](O[C@H]3O[C@H](CO)[C@@H](O)[C@H](N)[C@H]3O)[C@H](N)C[C@@H]2N)[C@H](O)[C@@H](O)[C@@H]1O` [Kanamycin], the MIC was found to be 32 µg/mL in series [1] (strain pretreated with 64 μg/ml Kanamycin + 1 μg/ml BVDU, repeated MIC determination, read-out: Kanamycin concentration from which growth of the inoculum was completely prevented (MIC)) and 128 µg/mL in series [1] (strain which had become resistant to 64 μg/ml Kanamycin, read-out: MIC of Kanamycin). Further, the “Kanamycin concentration from which growth inhibition was shown” value in series [1] (strain grown in the presence of 1 μg/ml BVDU (no resistance to 64 μg/ml Kanamycin), first MIC determination) was 16 µg/mL.
On to `O=c1[nH]c(=O)n([C@H]2C[C@H](O)[C@@H](CO)O2)cc1/C=C/Br` [BVDU, (E)-5-(2-bromovinyl)-2-deoxyuridines], for which the “growth of aminoglycoside/BVDU-pretreated E. coli strains in the absence of the antibiotic” value in series [3] (BVDU 1 or 2 μg/ml in the preculture or/and 0.04–0.05 μg/ml in the MIC batches) was “sustained restriction of the growth”. Besides, in series [3] (no pretreatment), the “effect of BVDU without pretreatment (antibiotic+BVDU)” value is on record as “no effect” and the “toxicity of BVDU without pretreatment” value is listed as “not toxic”. Also, in the series with Leidshmania donovanii (setting [4]), the “cell division rate relative to control level” value is on record as “never reached the control level” and the “resistance development to MTX treatment” value is recorded as “no resistance to the treatment”. In addition, in series [2] (BVDU 1 μg/ml in presence of Kanamycin 64 μg/ml, E. coli J53 (RP4)), the “effect on resistance development/adaptation to Kanamycin” value was “inhibition of this resistance development/adaptation”. The “effect on adaptation to Amikacin” value in series [2] (BVDU 2 μg/ml in presence of Amikacin 0.25 μg/ml, E coli J53 (RP4)) is listed as “inhibition of this adaptation”.

For the origin of these results see patent US7122528B2, “Use of 5-substituted nucleosides and/or prodrugs thereof in the resistance-free treatment of infectious diseases” (RESPROTECT GmbH, priority 2001, dated 2006).
